Experimental data taken from patent publication US20030212015A1, “Specific modulation of Th1/Th2 cytokine expression by ribavirin in activated T-lymphocytes” (priority 1996, published 2003).

Legend:
Format in all cases: cell-based, human
[1] = tested on: TNFα; assay: Extracellular TNFα levels in PMA/ionomycin-activated T cells (ELISA)
Procedure: (§1) Peripheral blood mononuclear cells (PBMCs) were isolated from the buffy coat following Ficoll-Hypaque density gradient centrifugation of 60 ml blood from healthy donors. T-cells were then purified from the PBMCs using Lymphokwik lymphocyte isolation reagent specific for T-cells (LK-25T, One Lambda, Canoga Park Calif.). An average yield of 40-60×10^6 T-cells were then incubated overnight at 37° C. in 20-30 ml RPMI-AP5 (RPMI-1640 medium (ICN, Costa Mesa, Calif.) containing 20 mM HEPES buffer, pH 7.4, 5% autologous plasma, 1% L-glutamine, 1% penicillin/streptomycin and 0.05% 2-mercaptoethanol) to remove any contaminating adherent cells. In all experiments, T-cells were washed with RPMI-AP5 and then plated on 96-well microtitre plates at a cell concentration of 1×10^6 cells/ml.
(§2) T-cells were activated by the addition of 500 ng ionomycin and 10 ng phorbol 12-myristate 13-acetate (PMA) (Calbiochem, La Jolla, Calif.) and incubated for 48-72 h at 37° C. […]
(§3) Cell-derived human cytokine concentrations were determined in cell supernatants from each microplate. Activation-induced changes in interleukin-2 (IL-2) levels were determined using a commercially available ELISA kit (R & D systems Quantikine kit, Minneapolis, Minn.) or by bioassay using the IL-2-dependent cell line, CTLL-2 (ATCC, Rockville, Md.). […]

[2] = tested on: IFNγ mRNA; assay: IFNγ mRNA in PMA/ionomycin-activated T cells (RT-PCR); conditions: FIG. 3
Procedure: (§4) T-cells were activated by the addition of 500 ng ionomycin and 10 ng phorbol 12-myristate 13-acetate (PMA) (Calbiochem, La Jolla, Calif.) and incubated for 48-72 h at 37° C. PMA/ionomycin-activated T-cells were treated with 0.5-50 μM Ribavirin or with 250-10000 U/ml of a control antiviral, interferon-alpha (Accurate, Westbury, N.Y.) immediately following activation and re-treated 24 h later. T-cells from each plate were used for immunofluorescence analysis and the supernatants used for extracellular cytokine measurements. Following activation, 900 μl cell supernatant from each microplate was transferred to another microplate for analysis of cell-derived cytokine production. The cells are then used in immunofluorescence analyses for intracellular cytokine levels and cytokine receptor expression. […]
(§5) The PCR reaction was performed using GeneAmp PCR kit (Perkin-Elmer Cetus, Foster City, Calif.). […] PCR products were analyzed on 2% agarose gel containing ethidium bromide. […] Equivalent loading was assessed following hybridization with a probe generated from pHE7 sense primer. Washed blots were then analyzed using Phosphorlmager.

[3] = tested on: IL-2; assay: Extracellular IL-2 levels in PMA/ionomycin-activated T cells (ELISA or CTLL-2 bioassay)
Procedure: as §1, §2, §3

[4] = tested on: IL-4; assay: Extracellular IL-4 levels in PMA/ionomycin-activated T cells (ELISA)
Procedure: as §1, §2, §3

[5] = tested on: IL-4 mRNA; assay: IL-4 mRNA in PMA/ionomycin-activated T cells (RT-PCR); conditions: FIG. 3
Procedure: as §4, §5

[6] = tested on: IL-2 (CD25) receptor; assay: Cell surface IL-2 receptor expression in activated T cells (FACS); conditions: compared to control activated T cells, FIG. 4
Procedure: as §4, with “production.” for “production. The cells are then used in immunofluorescence analyses for intracellular cytokine levels and cytokine receptor expression.”
(§6) For direct staining with fluorescence-conjugated antibodies to cell surface antigens, the cells were washed twice with isotonic saline solution, pH 7.4 (Becton Dickinson, Mansfield, Mass.) and resuspended in 50 μl isotonic saline solution and split into two samples. One sample aliquot was co-stained with either PE-anti CD25/FITC-anti CD4 or PE-rat anti mouse IgG+anti-CDw124/FITC-anti CD4 mAb and non-specific fluorescence was assessed by staining the second aliquot with PE/FITC-labeled isotype-matched control monoclonal antibody. All fluorescence-labeled monoclonal antibodies were obtained from Becton Dickinson (San Jose, Calif.) except for anti-CDw124 which was obtained from Pharmingen, San Diego, Calif. […]

[7] = tested on: IL-2 mRNA; assay: IL-2 mRNA in PMA/ionomycin-activated T cells (RT-PCR); conditions: FIG. 3
Procedure: as §4, §5

[8] = tested on: IL-2 in CD8+ T cells; assay: Intracellular IL-2 expression in activated CD8+ T cells (two-color flow cytometry); conditions: PMA/ionomycin alone 81%, one experiment, FIG. 5
Procedure: (§7) T-cells were activated by the addition of 500 ng ionomycin and 10 ng phorbol 12-myristate 13-acetate (PMA) (Calbiochem, La Jolla, Calif.) and incubated for 48-72 h at 37° C. PMA/ionomycin-activated T-cells were treated with 0.5-50 μM Ribavirin or with 250-10000 U/ml of a control antiviral, interferon-alpha (Accurate, Westbury, N.Y.) immediately following activation and re-treated 24 h later. T-cells from each plate were used for immunofluorescence analysis and the supernatants used for extracellular cytokine measurements. Following activation, 900 μl cell supernatant from each microplate was transferred to another microplate for analysis of cell-derived cytokine production. The cells are then used in immunofluorescence analyses for intracellular cytokine levels and cytokine receptor expression.
(§8) For analyses of the intracellular expression of IL-2 in CD4^+ and CD8^+ T cell subsets, T cells were first treated for the last 4 h of 48-72 h activation with 10 μg Brefeldin A (Gibco BRL, Gaithersburg, Md.) to minimize secretion of newly synthesized IL-2 into the extracellular milieu. […]
(§9) We examined whether the effect of Ribavirin on IL-2 expression was specific to CD4^+ or CD8^+ T cells. Intracellular IL-2 expression in fixed and Permeabilized activated T cells was determined by two-color flow cytometry using fluorescence-labeled antibodies to CD4 or CD8 and to IL-2. […]

[9] = tested on: IL-2 in CD4+ T cells; assay: Intracellular IL-2 expression in activated CD4+ T cells (two-color flow cytometry); conditions: PMA/ionomycin alone 82%, one experiment, FIG. 5
Procedure: as §7, §8, §9

[10] = tested on: IL-4 (CDw124) receptor; assay: Cell surface IL-4 receptor expression in activated T cells (FACS); conditions: compared to control activated T cells, FIG. 4
Procedure: as §4, with “production.” for “production. The cells are then used in immunofluorescence analyses for intracellular cytokine levels and cytokine receptor expression.”
as §6

[11] = range 250-10000 U/ml, dose-dependent, compared to untreated activated T cells
[12] = 2, 5 and 10 μM following T cell activation

Compound	maximal inhibition of TNFα expression [1, 11] [%]	effect on IFNγ mRNA ([2]; 1000, 2000 and 5000 U/ml)	maximal inhibition of IL-2 expression [3, 11] [%]	maximal increase of extracellular IL-4 ([4]; 10000 U/ml) [%]	effect on IL-4 mRNA ([5]; 1000, 2000 and 5000 U/ml)	effect on IL-2 receptor expression ([6]; 250-10000 U/ml, dose-dependent)	effect on IL-2 mRNA ([7]; 1000, 2000 and 5000 U/ml)	percentage of IL-2-expressing CD8+ cells ([8]; 5000 U/ml) [%]	percentage of IL-2-expressing CD4+ cells ([9]; 5000 U/ml) [%]	effect on IL-4 receptor expression ([10]; 250-10000 U/ml, dose-dependent)	maximal augmentation of activated levels of TNFα ([1]; at 20 μM (dose range 0.5-50 μM), PMA/ionomycin-activated T cells, 48-72 h, representative experiment, FIG. 1) [%]	effect on IFNγ mRNA [2, 12]	maximal augmentation of activated levels of IL-2 ([3]; at 5 μM (dose range 0.5-50 μM), PMA/ionomycin-activated T cells, 48-72 h, representative experiment, FIG. 1) [%]	inhibition at 2 µM ([4]; Homo sapiens, T-cell, at 2 μM, read-out: peak inhibition of activated levels of IL-4) [%]	effect on IL-4 mRNA [5, 12]	effect on activated levels of IL-2 receptor ([6]; 1-50 μM)	effect on IL-2 mRNA [7, 12]	percentage of CD8+ expressing IL-2 ([8]; 10 μM) [%]	percentage of CD4+ T cells expressing IL-2 ([9]; 10 μM) [%]	effect on activated levels of IL-4 receptor ([10]; 1-50 μM)
interferon-α	38	decreases	33	26	increases	decreased	decreases	71	81	increased										
NC(=O)c1ncn([C@@H]2O[C@H](CO)[C@@H](O)[C@H]2O)n1 [Ribavirin, 1-β-D-ribofuranosyl-1,2,4-triazole-3-carboxamide]											36	has no effect	30	74	decreases	little effect	elevates	91	91	little effect
